# Reference: PubChem BioAssay (NCI)
#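 Step 1: Grow cells in 96-well plates. Step 2: Expose to compound for 48 hours at 5 concentrations. Step 3: Interpolate endpoints linearly; if unreached, use highest concentration. GI50 marks 50% less growth. TGI: total growth inhibition.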
# Columns and labels:
# Assay in all cases: growth of human tumour cells (NCI), 48 h
# HOP-62 NSCLC = tested on: HOP-62 NSCLC
# SNB-75 CNS = tested on: SNB-75 CNS
# CAKI-1 renal = tested on: CAKI-1 renal
# NCI-H23 lung = tested on: NCI-H23 lung
# SR leukemia = tested on: SR leukemia
# SW-620 colon = tested on: SW-620 colon
# SK-MEL-28 melanoma = tested on: SK-MEL-28 melanoma
# MDA-MB-231 breast = tested on: MDA-MB-231 breast
# NCI-H226 lung = tested on: NCI-H226 lung
# CCRF-CEM leukemia = tested on: CCRF-CEM leukemia
# OVCAR-4 ovarian = tested on: OVCAR-4 ovarian
# A498 renal = tested on: A498 renal
# HCT-116 colon = tested on: HCT-116 colon
# HL-60(TB) leukemia = tested on: HL-60(TB) leukemia
# HT29 colon = tested on: HT29 colon
# BT-549 breast = tested on: BT-549 breast
# UACC-62 melanoma = tested on: UACC-62 melanoma
# UO-31 renal = tested on: UO-31 renal
# SF-268 CNS = tested on: SF-268 CNS
# IGROV1 ovarian = tested on: IGROV1 ovarian
# ACHN renal = tested on: ACHN renal
# OVCAR-3 ovarian = tested on: OVCAR-3 ovarian
# U251 CNS = tested on: U251 CNS
# NCI-H460 lung = tested on: NCI-H460 lung
# SNB-19 CNS = tested on: SNB-19 CNS
# A549 NSCLC = tested on: A549 NSCLC
# EKVX NSCLC = tested on: EKVX NSCLC
# TK-10 renal = tested on: TK-10 renal
# HS 578T breast = tested on: HS 578T breast
# LOX IMVI melanoma = tested on: LOX IMVI melanoma
# DU-145 prostate = tested on: DU-145 prostate
# SF-295 CNS = tested on: SF-295 CNS
# 786-0 renal = tested on: 786-0 renal
# HCC-2998 colon = tested on: HCC-2998 colon
# MOLT-4 leukemia = tested on: MOLT-4 leukemia
# M14 melanoma = tested on: M14 melanoma
# RPMI-8226 leukemia = tested on: RPMI-8226 leukemia
# T-47D breast = tested on: T-47D breast
# MDA-MB-435 = tested on: MDA-MB-435
# RXF 393 renal = tested on: RXF 393 renal
# SK-OV-3 ovarian = tested on: SK-OV-3 ovarian
# KM12 colon = tested on: KM12 colon
# NCI-H522 lung = tested on: NCI-H522 lung
# SK-MEL-5 melanoma = tested on: SK-MEL-5 melanoma
# MALME-3M melanoma = tested on: MALME-3M melanoma
# HCT-15 colon = tested on: HCT-15 colon
# COLO 205 colon = tested on: COLO 205 colon
# SN12C renal = tested on: SN12C renal
# NCI/ADR-RES ovarian = tested on: NCI/ADR-RES ovarian
# SK-MEL-2 melanoma = tested on: SK-MEL-2 melanoma
# OVCAR-5 ovarian = tested on: OVCAR-5 ovarian
# UACC-257 melanoma = tested on: UACC-257 melanoma
# K-562 leukemia = tested on: K-562 leukemia
# PC-3 prostate = tested on: PC-3 prostate
# MCF7 breast = tested on: MCF7 breast
# HOP-92 NSCLC = tested on: HOP-92 NSCLC
# OVCAR-8 ovarian = tested on: OVCAR-8 ovarian
structure (smiles),measurement,setting,value
CC1=C2C(=C[C@@](C)(COS(C)(=O)=O)[C@@H]2O)C(=O)[C@](C)(O)C12CC2,GI50,HOP-62 NSCLC,371 nM
same,TGI,HOP-62 NSCLC,2040 nM
same,GI50,SNB-75 CNS,1370 nM
same,TGI,SNB-75 CNS,2860 nM
same,GI50,CAKI-1 renal,406 nM
same,TGI,CAKI-1 renal,5360 nM
same,GI50,NCI-H23 lung,350 nM
same,TGI,NCI-H23 lung,1560 nM
same,GI50,SR leukemia,360 nM
same,TGI,SR leukemia,> 100000 nM
same,GI50,SW-620 colon,320 nM
same,TGI,SW-620 colon,> 100000 nM
same,GI50,SK-MEL-28 melanoma,678 nM
same,TGI,SK-MEL-28 melanoma,2500 nM
same,GI50,MDA-MB-231 breast,1340 nM
same,TGI,MDA-MB-231 breast,5990 nM
same,GI50,NCI-H226 lung,2120 nM
same,TGI,NCI-H226 lung,6170 nM
same,GI50,CCRF-CEM leukemia,344 nM
same,TGI,CCRF-CEM leukemia,> 100000 nM
same,GI50,OVCAR-4 ovarian,1450 nM
same,TGI,OVCAR-4 ovarian,5680 nM
same,TGI,A498 renal,694 nM
same,GI50,HCT-116 colon,315 nM
same,TGI,HCT-116 colon,> 31700 nM
same,GI50,HL-60(TB) leukemia,466 nM
same,TGI,HL-60(TB) leukemia,4530 nM
same,GI50,HT29 colon,414 nM
same,TGI,HT29 colon,28600 nM
same,GI50,BT-549 breast,632 nM
same,TGI,BT-549 breast,2470 nM
same,GI50,UACC-62 melanoma,257 nM
same,TGI,UACC-62 melanoma,731 nM
same,GI50,UO-31 renal,1570 nM
same,TGI,UO-31 renal,5520 nM
same,GI50,SF-268 CNS,333 nM
same,TGI,SF-268 CNS,2290 nM
same,GI50,IGROV1 ovarian,556 nM
same,TGI,IGROV1 ovarian,5670 nM
same,GI50,ACHN renal,349 nM
same,TGI,ACHN renal,3550 nM
same,GI50,OVCAR-3 ovarian,544 nM
same,TGI,OVCAR-3 ovarian,4530 nM
same,GI50,U251 CNS,286 nM
same,TGI,U251 CNS,1340 nM
same,GI50,NCI-H460 lung,216 nM
same,TGI,NCI-H460 lung,517 nM
same,GI50,SNB-19 CNS,477 nM
same,TGI,SNB-19 CNS,6010 nM
same,GI50,A549 NSCLC,604 nM
same,TGI,A549 NSCLC,6920 nM
same,GI50,EKVX NSCLC,1660 nM
same,TGI,EKVX NSCLC,5220 nM
same,GI50,TK-10 renal,2220 nM
same,TGI,TK-10 renal,7140 nM
same,GI50,HS 578T breast,1770 nM
same,TGI,HS 578T breast,4780 nM
same,GI50,LOX IMVI melanoma,365 nM
same,TGI,LOX IMVI melanoma,1690 nM
same,GI50,DU-145 prostate,366 nM
same,TGI,DU-145 prostate,5040 nM
same,GI50,SF-295 CNS,293 nM
same,TGI,SF-295 CNS,1280 nM
same,GI50,786-0 renal,1960 nM
same,TGI,786-0 renal,6740 nM
same,GI50,HCC-2998 colon,648 nM
same,TGI,HCC-2998 colon,2870 nM
same,GI50,MOLT-4 leukemia,331 nM
same,TGI,MOLT-4 leukemia,> 100000 nM
same,GI50,M14 melanoma,717 nM
same,TGI,M14 melanoma,2540 nM
same,GI50,RPMI-8226 leukemia,3660 nM
same,TGI,RPMI-8226 leukemia,52000 nM
same,GI50,T-47D breast,1790 nM
same,TGI,T-47D breast,7780 nM
same,GI50,MDA-MB-435,757 nM
same,TGI,MDA-MB-435,2210 nM
same,GI50,RXF 393 renal,335 nM
same,TGI,RXF 393 renal,930 nM
same,GI50,SK-OV-3 ovarian,447 nM
same,TGI,SK-OV-3 ovarian,2220 nM
same,GI50,KM12 colon,579 nM
same,TGI,KM12 colon,7130 nM
same,GI50,NCI-H522 lung,347 nM
same,TGI,NCI-H522 lung,1560 nM
same,GI50,SK-MEL-5 melanoma,272 nM
same,TGI,SK-MEL-5 melanoma,755 nM
same,GI50,MALME-3M melanoma,459 nM
same,TGI,MALME-3M melanoma,1760 nM
same,GI50,HCT-15 colon,443 nM
same,TGI,HCT-15 colon,5140 nM
same,GI50,COLO 205 colon,761 nM
same,TGI,COLO 205 colon,2840 nM
same,GI50,SN12C renal,1990 nM
same,TGI,SN12C renal,10700 nM
same,GI50,NCI/ADR-RES ovarian,762 nM
same,TGI,NCI/ADR-RES ovarian,5970 nM
same,GI50,SK-MEL-2 melanoma,289 nM
same,TGI,SK-MEL-2 melanoma,793 nM
same,GI50,OVCAR-5 ovarian,382 nM
same,TGI,OVCAR-5 ovarian,3060 nM
same,GI50,UACC-257 melanoma,2390 nM
same,TGI,UACC-257 melanoma,6900 nM
same,GI50,K-562 leukemia,478 nM
same,TGI,K-562 leukemia,> 100000 nM
same,GI50,PC-3 prostate,624 nM
same,TGI,PC-3 prostate,4820 nM
same,GI50,MCF7 breast,238 nM
same,TGI,MCF7 breast,2550 nM
same,GI50,HOP-92 NSCLC,357 nM
same,TGI,HOP-92 NSCLC,1480 nM
same,GI50,OVCAR-8 ovarian,1740 nM
same,TGI,OVCAR-8 ovarian,12000 nM
